# Data reported in patent US7473790B2 (Pfizer Inc., priority 2003, dated 2009).
# Target: T1, HCV polymerase (Hepatitis C virus genotype 1b, UniProt P26663)
# T1 construct: 2.5 pmoles (0.15 μg) HCV polymerase protein in a final volume of 75 μL
# Experiment: HCV polymerase primer/template-directed transcription assay (32P-GTP incorporation, filter binding)
# Format: biochemical
# Conditions: @ 50 uM compound; given where IC50 was impractical to calculate; read-out: percent inhibition
# Outline: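 Recombinant genotype 1b polymerase (30 nM) extended biotin-dG12 primer on poly(rC)300 template with 1 μM GTP plus α-32P-GTP, pH 7.2, 10 mM MgCl2, 30 min at 30° C, 1% DMSO final. Products captured on DE filters and counted. IC50 fitted from triplicate cpm, with a tight-binding correction applied below 200 nM.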
# T1 sequence (P26663 2420-3010): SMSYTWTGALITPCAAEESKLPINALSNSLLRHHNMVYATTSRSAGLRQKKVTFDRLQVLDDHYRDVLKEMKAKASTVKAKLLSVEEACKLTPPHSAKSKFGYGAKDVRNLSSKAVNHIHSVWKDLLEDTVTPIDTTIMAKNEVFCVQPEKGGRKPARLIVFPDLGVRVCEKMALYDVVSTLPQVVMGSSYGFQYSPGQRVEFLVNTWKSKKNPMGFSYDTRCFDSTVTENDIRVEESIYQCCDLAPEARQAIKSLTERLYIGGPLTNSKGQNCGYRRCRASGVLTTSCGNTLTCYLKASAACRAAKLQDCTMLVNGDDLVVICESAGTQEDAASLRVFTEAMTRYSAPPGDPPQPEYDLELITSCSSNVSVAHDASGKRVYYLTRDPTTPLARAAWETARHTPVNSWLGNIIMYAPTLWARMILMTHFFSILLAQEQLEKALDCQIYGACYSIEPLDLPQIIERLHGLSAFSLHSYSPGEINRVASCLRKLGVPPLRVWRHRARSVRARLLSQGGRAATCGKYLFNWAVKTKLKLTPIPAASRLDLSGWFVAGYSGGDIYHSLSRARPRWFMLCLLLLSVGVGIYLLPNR
row,Structure (SMILES),inhibition at 50 µM [%]
1,"CC(=O)n1nc(C)c(CCC2(C3CCCC3)CC(=O)CC(=O)O2)c1C (stereo not shown) [A(19), 6-[2-(1-Acetyl-3,5-dimethyl-1H-pyrazol-4-yl)-ethyl]-6-cyclopentyl-dihydro-pyran-2,4-dione]",37
2,"CCC1(CCc2ccc(OC)cc2)CC(=O)CC(=O)O1 (stereo not shown) [A(23), 6-Ethyl-6-[2-(4-methoxy-phenyl)-ethyl]-dihydro-pyran-2,4-dione]",1
3,"COc1ccc(CCC2(CC(C)C)CC(=O)CC(=O)O2)cc1 (stereo not shown) [A(24), 6-Isobutyl-6-[2-(4-methoxy-phenyl)-ethyl]-dihydro-pyran-2,4-dione]",29
4,"C=CCC1(CCc2ccc(OC)cc2)CC(=O)CC(=O)O1 (stereo not shown) [A(26), 6-Allyl-6-[2-(4-methoxy-phenyl)-ethyl]-dihydro-pyran-2,4-dione]",20
5,"CCOC(=O)CC(=O)N[C@H](C)c1ccc(CCC2(C3CCCC3)CC(=O)CC(=O)O2)cc1 (stereo partly shown) [A(39), N-(1-{4-[2-(2-Cyclopentyl-4,6-dioxo-tetrahydro-pyran-2-yl)-ethyl]-phenyl}-ethyl)-malonamic acid ethyl ester]",14

# Same assay, conditions: recombinant HCV polymerase; 30 minutes at 30° C.; concentration giving 50% inhibition of polymerase-directed transcription; read-out: IC50
row,Structure (SMILES),IC50 [µM]
1,"CN(C)C(=O)c1ccc(CCC2(C3CCCC3)CC(=O)CC(=O)O2)cc1F (stereo not shown) [A(16), 4-[2-(2-Cyclopentyl-4,6-dioxo-tetrahydro-pyran-2-yl)-ethyl]-2-fluoro-N,N-dimethyl-benzamide]",14.4
2,"CCNC(=O)c1ccc(CCC2(C3CCCC3)CC(=O)CC(=O)O2)cc1F (stereo not shown) [A(17), 4-[2-(2-Cyclopentyl-4,6-dioxo-tetrahydro-pyran-2-yl)-ethyl]-N-ethyl-2-fluoro-benzamide]",23
3,"Cc1noc(C)c1-c1ccc(CCC2(C3CCCC3)CC(=O)CC(=O)O2)cc1 (stereo not shown) [A(18), 6-Cyclopentyl-6-{2-[4-(3,5-dimethyl-isoxazol-4-yl)-phenyl]-ethyl}-dihydro-pyran-2,4-dione]",3.1
4,"CCc1cc(CCC2(C3CCCC3)CC(=O)CC(=O)O2)ccc1O (stereo not shown) [A(22), 6-Cyclopentyl-6-[2-(3-ethyl-4-hydroxy-phenyl)-ethyl]-dihydro-pyran-2,4-dione]",0.3
5,"CCCC1(CCc2ccc(OC)cc2)CC(=O)CC(=O)O1 (stereo not shown) [A(25), 6-[2-(4-Methoxy-phenyl)-ethyl]-6-propyl-dihydro-pyran-2,4-dione]",73.9
6,"CC1(c2ccc(CCC3(C4CCCC4)CC(=O)CC(=O)O3)cc2Cl)CC(=O)CC(=O)O1 (stereo not shown) [A(27), 6-[2-(3-Chloro-4-(6-Methyl-dihydro-pyran-2,4-dione)-phenyl)-ethyl]-6-cyclopentyl-dihydro-pyran-2,4-dione]",0.125
7,"CC1(c2cccc(CCC3(C4CCCC4)CC(=O)CC(=O)O3)c2)CC(=O)CC(=O)O1 (stereo not shown) [A(28), 6-Cyclopentyl-6-[2-(3-(6-Methyl-dihydro-pyran-2,4-dione)-phenyl)-ethyl]-dihydro-pyran-2,4-dione]",3.9
8,"CC1(c2ccc(CCC3(C4CCCC4)CC(=O)CC(=O)O3)cc2)CCC(=O)O1 (stereo not shown) [A(29), 6-Cyclopentyl-6-{2-[4-(2-methyl-5-oxo-tetrahydro-furan-2-yl)-phenyl]-ethyl}-dihydro-pyran-2,4-dione]",1.5
9,"CCC1(c2ccc(CCC3(C4CCCC4)CC(=O)CC(=O)O3)cc2Cl)CC(=O)CC(=O)O1 (stereo not shown) [A(30), 6-[2-(3-Chloro-4-(6-Ethyl-dihydro-pyran-2,4-dione)-phenyl)-ethyl]-6-cyclopentyl-dihydro-pyran-2,4-dione]",0.84
10,O=C1CC(=O)OC(CCc2ccc(C3(C4CC4)CC(=O)CC(=O)O3)cc2)(C2CCCC2)C1 (stereo not shown) [A(31)],0.4
11,"O=C1CC(=O)OC(CCc2ccc(C(=O)C3CC3)cc2)(C2CCCC2)C1 (stereo not shown) [A(32), 6-Cyclopentyl-6-[2-(4-cyclopropanecarbonyl-phenyl)-ethyl]-dihydro-pyran-2,4-dione]",5.2
12,"COC(=O)C(C)(C)c1ccc(CCC2(C3CCCC3)CC(=O)CC(=O)O2)cc1 (stereo not shown) [A(33), 2-{4-[2-(2-Cyclopentyl-4,6-dioxo-tetrahydro-pyran-2-yl)-ethyl]-phenyl}-2-methyl-propionic acid methyl ester]",5
13,"CC(C)(C)C1(c2ccc(CCC3(C4CCCC4)CC(=O)CC(=O)O3)cc2)OCCO1 (stereo not shown) [A(34), 6-{2-[4-(2-tert-Butyl-[1,3]dioxolan-2-yl)-phenyl]-ethyl}-6-cyclopentyl-dihydro-pyran-2,4-dione]",10
14,"C[C@@H](O)c1ccc(CCC2(C3CCCC3)CC(=O)CC(=O)O2)cc1 (stereo partly shown) [A(35), 6-Cyclopentyl-6-{2-[4-(1-hydroxy-ethyl)-phenyl]-ethyl}-dihydro-pyran-2,4-dione]",4.1
15,"C[C@H](O)c1ccc(CCC2(C3CCCC3)CC(=O)CC(=O)O2)cc1 (stereo partly shown) [A(36), 6-Cyclopentyl-6-{2-[4-(1-hydroxy-ethyl)-phenyl]-ethyl}-dihydro-pyran-2,4-dione]",8.4
16,"CC(C)(C)C(=O)c1ccc(CCC2(C3CCCC3)CC(=O)CC(=O)O2)cc1 (stereo not shown) [A(37), 6-Cyclopentyl-6-{2-[4-(2,2-dimethyl-propionyl)-phenyl]-ethyl}-dihydro-pyran-2,4-dione]",8.7
17,"CC(=O)N[C@H](C)c1ccc(CCC2(C3CCCC3)CC(=O)CC(=O)O2)cc1 (stereo partly shown) [A(38), N-(1-{4-[2-(2-Cyclopentyl-4,6-dioxo-tetrahydro-pyran-2-yl)-ethyl]-phenyl}-ethyl)-acetamide]",12
18,"N#CC1(c2ccc(CCC3(C4CCCC4)CC(=O)CC(=O)O3)cc2)CC1 (stereo not shown) [A(40), 1-{4-[2-(2-Cyclopentyl-4,6-dioxo-tetrahydro-pyran-2-yl)-ethyl]-phenyl}-cyclopropanecarbonitrile]",2

row,Structure (SMILES),IC50 [µM]
1,"CNC(=O)N[C@H](C)c1ccc(CCC2(C3CCCC3)CC(=O)CC(=O)O2)cc1 (stereo partly shown) [A(41), 1-(1-{4-[2-(2-Cyclopentyl-4,6-dioxo-tetrahydro-pyran-2-yl)-ethyl]-phenyl}-ethyl)-3-methyl-urea]",13
2,"C[C@@H](NS(C)(=O)=O)c1ccc(CCC2(C3CCCC3)CC(=O)CC(=O)O2)cc1 (stereo partly shown) [A(42), N-(1-{4-[2-(2-Cyclopentyl-4,6-dioxo-tetrahydro-pyran-2-yl)-ethyl]-phenyl}-ethyl)-methanesulfonamide]",8
3,"Cc1cc(C(=O)N[C@H](C)c2ccc(CCC3(C4CCCC4)CC(=O)CC(=O)O3)cc2)no1 (stereo partly shown) [A(43), 5-Methyl-isoxazole-3-carboxylic acid (1-{4-[2-(2-cyclopentyl-4,6-dioxo-tetrahydro-pyran-2-yl)-ethyl]-phenyl}-ethyl)-amide]",20
4,"O=C1CC(=O)OC(CCC2CCCCC2)(C2CCCC2)C1 (stereo not shown) [A(44), 6-(2-Cyclohexyl-ethyl)-6-cyclopentyl-dihydro-pyran-2,4-dione]",68.3
5,"N#Cc1cccc(-c2ccc(CCC3(C4CCCC4)CC(=O)CC(=O)O3)cc2)c1 (stereo not shown) [A(45), 4′-[2-(2-Cyclopentyl-4,6-dioxo-tetrahydro-pyran-2-yl)-ethyl]-biphenyl-3-carbonitrile]",30
6,"N#Cc1ccccc1CCC1(C2CCCC2)CC(=O)CC(=O)O1 (stereo not shown) [A(46), 2-[2-(2-Cyclopentyl-4,6-dioxo-tetrahydro-pyran-2-yl)-ethyl]-benzonitrile]",73
7,"O=C1CC(=O)OC(CCc2ccc3ccccc3c2)(C2CCCC2)C1 (stereo not shown) [A(47), 6-Cyclopentyl-6-(2-naphthalen-2-yl-ethyl)-dihydro-pyran-2,4-dione]",7
8,"O=C1CC(=O)OC(CCc2ccc(OC3CCCCO3)cc2)(C2CCCC2)C1 (stereo not shown) [A(48), 6-Cyclopentyl-6-{2-[4-(tetrahydro-pyran-2-yloxy)-phenyl]-ethyl}-dihydro-pyran-2,4-dione]",33.2
9,"CNC(=O)C(C)(C)c1ccc(CCC2(C3CCCC3)CC(=O)CC(=O)O2)cc1 (stereo not shown) [A(49), 2-{4-[2-(2-Cyclopentyl-4,6-dioxo-tetrahydro-pyran-2-yl)-ethyl]-phenyl}-N-methyl-isobutyramide]",9
10,"O=C1CC(=O)OC(CCc2ccc(-c3nnc(-c4ccccc4)o3)cc2)(C2CCCC2)C1 (stereo not shown) [A(50), 6-Cyclopentyl-6-{2-[4-(5-phenyl-[1,3,4]oxadiazol-2-yl)-phenyl]-ethyl}-dihydro-pyran-2,4-dione]",5.9
11,"CCNC(=O)C(C)(C)c1ccc(CCC2(C3CCCC3)CC(=O)CC(=O)O2)cc1 (stereo not shown) [A(51), 2-{4-[2-(2-Cyclopentyl-4,6-dioxo-tetrahydro-pyran-2-yl)-ethyl]-phenyl}-N-ethyl-isobutyramide]",3.9
12,"COC(=O)CC(=O)CC(=O)C(C)(C)Oc1ccc(CCC2(C3CCCC3)CC(=O)CC(=O)O2)cc1F (stereo not shown) [A(52), 6-{4-[2-(2-Cyclopentyl-4,6-dioxo-tetrahydro-pyran-2-yl)-ethyl]-2-fluoro-phenoxy}-6-methyl-3,5-dioxo-heptanoic acid methyl ester]",1.5
13,"COC(=O)C(C)(C)Oc1ccc(CCC2(C3CCCC3)CC(=O)CC(=O)O2)cc1Cl (stereo not shown) [A(53), 2-{2-Chloro-4-[2-(2-cyclopentyl-4,6-dioxo-tetrahydro-pyran-2-yl)-ethyl]-phenoxy}-2-methyl-propionic acid methyl ester]",3.3
14,O=C(O)COc1ccc(CCC2(C3CCCC3)CC(=O)CC(=O)O2)cc1Cl (stereo not shown) [A(54)],2.9
15,"COC(=O)C(C)(C)Oc1ccc(CCC2(C3CCCC3)CC(=O)CC(=O)O2)cc1F (stereo not shown) [A(55), 2-{4-[2-(2-Cyclopentyl-4,6-dioxo-tetrahydro-pyran-2-yl)-ethyl]-2-fluoro-phenoxy}-2-methyl-propionic acid methyl ester]",11.2
16,"Cc1nc(C(C)(C)c2ccc(CCC3(C4CCCC4)CC(=O)CC(=O)O3)cc2)no1 (stereo not shown) [A(56), 6-Cyclopentyl-6-(2-{4-[1-methyl-1-(5-methyl-[1,2,4]oxadiazol-3-yl)-ethyl]-phenyl}-ethyl)-dihydro-pyran-2,4-dione]",39
17,"O=C1CC(=O)OC(CCCCC2CCCCC2)(C2CCCC2)C1 (stereo not shown) [A(57), 6-(4-Cyclohexyl-butyl)-6-cyclopentyl-dihydro-pyran-2,4-dione]",6.3
